This is an account of results in patent publication US20150268248A1, “CELL SELECTIVE PROTEOME LABELING” (MEMORIAL SLOAN-KETTERING CANCER CENTER, priority 2012, published 2015).

“Also recorded” adds a separate entry of the source.

One assay concerns HEK 293T cells. Description: Growth of wild-type cells on L-Lysine precursors (Resazurin/AlamarBlue). To be noted: wild-type HEK 293T; medium without L-Lysine supplemented with high (mM-range) concentrations of precursor. Format: cell-based, human. As to the method:
(§1) (a) Cells were seeded in 96 well format using at least 4 replicates per condition and cell proliferation was measured with the Resazurin (AlamarBlue) assay at the time indicated.
(§2) To investigate the candidate precursors and eliminate those that autonomously rescue L-Lysine auxotrophy, growth rates in SILAC media supplemented with L-Lysine, various precursors, or in L-Lysine-free conditions were examined.
(§3) Cell lines were grown in Dulbecco's modified Eagle's medium (DMEM) without L-Lysine and L-Arginine (SILAC-DMEM, Thermo Fisher Scientific) supplemented with 10% dialyzed FBS, antibiotics, and L-glutamine. […] Cell viability was measured using either the metabolic-activity based Resazurin (Sigma) reagent or the impedance-based xCELLigence system (Roche). For Resazurin experiments, 25 μL of the Resazurin reagent was added to each well and cellular growth was estimated after two to three hours of incubation at 37° C. as described by the manufacturer. For xCELLigence experiments, cells were plated in either 16 or 96-well E-plates, allowed to settle for 30 minutes at room temperature, and then placed in the RTCA DP or RTCA MP analyzer where impedance was measured every 15 minutes for 96-120 hours. At least three replicates were performed for each condition.
A general note: Alamar Blue is a resazurin reagent that responds to reducing activity.

Assay [1] deals with MDA-MB-231 cells expressing truncated Lysine racemase (lyr). Description: Growth on D-lysine of cells expressing truncated lyr. It is filed as cell-based, human. To be noted: mono- and co-culture in vitro. As to the method:
(§4) Cell lines were grown in Dulbecco's modified Eagle's medium (DMEM) without L-Lysine and L-Arginine (SILAC-DMEM, Thermo Fisher Scientific) supplemented with 10% dialyzed FBS, antibiotics, and L-glutamine. For mono-culture growth assays, 1 mM L-Arginine was added to the media and cells were seeded in 200 μL in 96-well plates with 4000 or 5000 cells per well in different concentrations of L-Lysine, meso-2,6-diaminopimelate (DAP, Sigma, 33240), D-Lysine HCL (Sigma, L5876), N-α-Cbz-L-Lysine (Z-Lysine, BaChem, C-2200), or N2-acetyl-L-Lysine (N2A, Sigma, A2010). Cell viability was measured using either the metabolic-activity based Resazurin (Sigma) reagent or the impedance-based xCELLigence system (Roche). For Resazurin experiments, 25 μL of the Resazurin reagent was added to each well and cellular growth was estimated after two to three hours of incubation at 37° C. as described by the manufacturer. For xCELLigence experiments, cells were plated in either 16 or 96-well E-plates, allowed to settle for 30 minutes at room temperature, and then placed in the RTCA DP or RTCA MP analyzer where impedance was measured every 15 minutes for 96-120 hours. At least three replicates were performed for each condition.

The test system of assay [2] is B16 cells expressing truncated Lysine racemase (lyr). Described as above. The settings on record: mono- and co-culture in vitro. It is filed as cell-based, mouse. As to the method:
CTAP can be quickly adaptable across many cell types without phenotypic or molecular disturbance. Cell lines that are suitable for use in practicing the method of the invention include, but are not limited to mouse fibroblast 3T3 cells, mouse melanoma, B16 cells, human embryonic kidney (HEK) cells, human mammary adenocarcinoma cells, […], etc.
as §4, with “For Resazurin experiments, 25 μL of the Resazurin reagent was added to each well and cellular growth was estimated after two to three hours of incubation at 37° C. as described by the manufacturer.” left out, “At least three replicates were performed for each condition.” left out

Assay [3] relates to lyr-expressing MDA-MB-231 cells. Put plainly: Growth rescue on precursors in L-Lysine-free medium (xCELLigence impedance). Format: cell-based, human. To be noted: 4 mM D-Lysine or 10 mM DAP, mono-culture. As for the experimental part: (§5) Cell growth, assessed with impedance (a correlate of the number of cells) using the xCELLigence system, was normalized to maximum growth. Error bars represent the standard deviation of three biological replicates.
as §3

The next assay has as its system 3T3 cells. Description: Growth of wild-type cells on L-Lysine precursors (Resazurin/AlamarBlue). The settings on record: wild-type 3T3; medium without L-Lysine supplemented with high (mM-range) concentrations of precursor. Format: cell-based, mouse. As to the method: as §1, §2, §3
For assay [4], the system named is HEK293T cells expressing a truncated Lysine racemase (lyr). Description: Growth on D-lysine of cells expressing truncated lyr (xCELLigence impedance). Format: cell-based, human. To be noted: mono- and co-culture in vitro. As for the experimental part:
as §5
as §4, with “At least three replicates were performed for each condition.” left out

Another assay concerns DDC-expressing 3T3 cells. Put plainly: Growth rescue on precursors in L-Lysine-free medium (xCELLigence impedance). Format: cell-based, mouse. To be noted: 10 mM DAP or 4 mM D-Lysine, mono-culture. As for the experimental part:
as §5, §3

Assay [5] deals with CBZcleaver-expressing 3T3 cells. Description: Growth on Z-Lysine (xCELLigence impedance). Format: cell-based, mouse. To be noted: 2.5 mM Z-Lysine, L-Lysine-free. As to the method: FIG. 10 are graphs showing that 3T3 cells expressing the CBZcleaver enzyme grow on Z-Lysine and partially incorporate L-Lysine produced from Z-Lysine (CBZ-Lysine). (a) 3T3 cells stably trasfected with CBZcleaver (left panel) or empty control vector (right panel) were cultured in 0.798 mM L-Lysine, 2.5 mM Z-Lysine, or without either (blank). Cell growth was estimated by the impedance-based xCELLigence assay and data was normalized to maximum values for each cell-type. Error bars represent the standard deviation of three biological replicates. […] The labeling status was assessed by quantitative LC-MS/MS at the beginning of the experiment where the cells were labeled with medium L-Lysine (left, K4) and after 10 days in L-Lysine-free media with heavy labeled Z-Lysine (right, Z8). […]
as §3, with “For Resazurin experiments, 25 μL of the Resazurin reagent was added to each well and cellular growth was estimated after two to three hours of incubation at 37° C. as described by the manufacturer.” left out, “At least three replicates were performed for each condition.” left out

The subject of assay [6] is DDC-expressing HEK293T cells. Description: Growth rescue on precursors in L-Lysine-free medium (xCELLigence impedance). The settings on record: 10 mM DAP, mono-culture. Format: cell-based, human. As for the experimental part: FIG. 9 are graphs showing that HEK293T cells expressing the L-Lysine biosynthesis enzyme diaminopimelate decarboxylase (DDC) specifically grow on meso-2,6-diaminopimelate (DAP). HEK293T cells stably transfected with DDC (left panel) or empty control vector (right panel) were cultured in 0.798 mM L-Lysine, 10 mM DAP, or neither (blank). Cell growth was estimated by the impedance-based xCelligence assay and data was normalized to the maximum value for each cell-type. Note that only HEK293T cells that express DDC grow on DAP. Error bars represent the standard deviation of three biological replicates.
The time to reach normal growth rates varied between cell-types from immediate to a short passaging/selection period.
as §3, with “For Resazurin experiments, 25 μL of the Resazurin reagent was added to each well and cellular growth was estimated after two to three hours of incubation at 37° C. as described by the manufacturer.” left out, “At least three replicates were performed for each condition.” left out

With `NCCCC[C@@H](N)C(=O)O` [D-Lysine], the growth response entry with HEK 293T cells and in the assay on 3T3 cells was “no or limited growth response” in each case. In addition, the “growth on D-lysine relative to growth on L-lysine” value in assay [1], in assay [2] and in assay [4] was “comparable” throughout. Moreover, the “growth rate relative to media containing L-Lysine” value in assay [3] was “comparable”; with DDC-expressing 3T3 cells, “no growth”.
As for `CC(=O)N[C@@H](CCCCN)C(=O)O` [N2A, N2-acetyl-L-Lysine], the growth response entry in the assay on HEK 293T cells and in the assay with 3T3 cells was “substantial growth response” each time.
On to `NCCCC[C@H](NC(=O)OCc1ccccc1)C(=O)O` [Z-Lysine, N-α-Cbz-L-Lysine], for which the growth response result in the assay with HEK 293T cells and in the assay with 3T3 cells was “no or limited growth response” each time. For the same molecule, the “growth on Z-Lysine” value in assay [5] was “incomplete; also recorded: specific growth rescue”.
In the case of `N[C@H](CCC[C@H](N)C(=O)O)C(=O)O` [DAP, meso-2,6-diaminopimelate], the growth response result in the assay on HEK 293T cells and in the assay on 3T3 cells was “no or limited growth response” in each case. Further, the “growth rate relative to media containing L-Lysine” value in [3] was “no growth”; in [6], “comparable”; in the assay on DDC-expressing 3T3 cells it was “comparable”.
